{
  "source": "patent US20080096830A1",
  "about": "“Anti-Inflammatory Macrolide Conjugates” (priority 2005, published 2008)",
  "key": {"[1]": {"tested_on": "eosinophil number in BAL fluid", "assay": "Model of lung eosinophilia in mice", "assay_type": "in vivo, Balb/C mice", "settings": "OVA-sensitised mice, i.n. or i.p. dosing, compared to the vehicle treated control group", "experimental": "Male Balb/C mice with a body weight of 20-25 g were randomly divided into groups, and sensitized by an i.p. injection of ovalbumin (OVA, Sigma) on day zero and day fourteen. On the twentieth day, the mice were subjected to a challenge test by i.n. (intranasal) application of OVA (positive control or test group) or PBS (negative control). 48 hours after i.n. application of OVA, the animals were anaesthetized and the lungs were rinsed with 1 mL of PBS. The cells were separated on a Cytospin 3 cytocentrifuge (Shandon). The cells were stained in Diff-Quick (Dade) and the percentage of eosinophils was determined by differential counting of at least 100 cells. The compounds were administered daily i.n. or i.p. in different doses 2 days before the provocative test and up to the completion of the test. Compounds were administered as suspension either in carboxymethyl cellulose or in lactose solution. Fluticasone and beclomethasone were used as standard anti-inflammatory substances for comparison."}, "[2]": {"biological_target": "T1, Human Prostaglandin-H Synthase-2 (hPGH-2), COX-2 (Homo sapiens, UniProt P35354)", "T1 construct": "expressed in transfected cells; host or cells: COS-7", "T1 sequence (P35354 18-604)": "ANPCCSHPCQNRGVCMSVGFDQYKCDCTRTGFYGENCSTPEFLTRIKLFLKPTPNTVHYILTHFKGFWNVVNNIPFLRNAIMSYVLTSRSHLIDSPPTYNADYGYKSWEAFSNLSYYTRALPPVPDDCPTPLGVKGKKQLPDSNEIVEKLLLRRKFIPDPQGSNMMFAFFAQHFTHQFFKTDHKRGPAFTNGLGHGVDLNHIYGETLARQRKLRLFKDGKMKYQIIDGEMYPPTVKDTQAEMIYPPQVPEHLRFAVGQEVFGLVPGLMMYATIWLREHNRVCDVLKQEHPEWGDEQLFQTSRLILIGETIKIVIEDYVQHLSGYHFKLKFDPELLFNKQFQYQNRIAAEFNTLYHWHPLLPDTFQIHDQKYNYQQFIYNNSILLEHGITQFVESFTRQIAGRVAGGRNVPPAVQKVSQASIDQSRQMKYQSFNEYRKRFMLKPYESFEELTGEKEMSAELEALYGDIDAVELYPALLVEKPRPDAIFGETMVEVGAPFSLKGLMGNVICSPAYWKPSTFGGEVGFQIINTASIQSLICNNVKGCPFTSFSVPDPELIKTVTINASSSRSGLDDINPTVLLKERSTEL", "assay": "Human prostaglandin-H synthase-2 (hPGH-2) inhibition assay in transfected COS-7 cells (PGE-2)", "assay_type": "cell-based", "settings": "COS-7 cells transfected with hPGH-2, arachidonic acid 20 μM, PGE-2 readout", "experimental": "The cells were grown in 10% fetal bovine serum (FBS) in DMEM medium (Invitrogen Life Technologies) at 37° C. in an atmosphere with 5% CO2 and 90% moisture. 20 000 cells/well were plated in 96 well plate (Falcon). The cells in a negative control were cultured only in medium (NC), while the secretion of TNF-α in a positive control was stimulated by the addition of 500 pg/mL lipopolysaccharide (LPS, E. coli serotype 0111:B4, Sigma) (PC). The effect of the tested substances on TNF-α secretion was assessed after their addition to cell cultures stimulated with LPS (TS). […] The percentage inhibition of TNF-α production was calculated by the following equation: % inhibition=[1-(TS-NC)/(PC-NC)]×100. IC50 value was defined as the concentration of the substance at which 50% of TNF-α production was inhibited. […] After 30 minutes supernatants were removed and prostoglandin E2 (PGE-2) was measured with a PGE-2 assay kit (Cayman) following the manufacturer's instructions. No production of PGE-2 was detected in negative controls. % inhibition was calculated by the following equation: % inhibition=(1-sample PGE-2 concentration/positive control PGE-2 concentration)*100."}},
  "data": [
    {"compound": "CCC1OC(=O)C(C)C(O)C(C)C(OC2OC(C)CC(N(C)C)C2O)C(C)(O)CC(C)CN(CCCNC(=O)C=Cc2cc3c(s2)-c2cc(C)ccc2Sc2ccccc2-3)C(C)C(O)C1(C)O", "note": "(centres unmarked) [Compound 21]", "values": [
      {"measurement": "inhibition of relative eosinophil number in BAL fluid", "setting": "[1]", "result": "statistically significant inhibition"}
    ]},
    {"compound": "CCC1OC(=O)C(C)C(OC2CC(C)(OC)C(O)C(C)O2)C(C)C(OC2OC(C)CC(N(C)CCCNC(=O)C=Cc3cc4c(s3)-c3cc(Cl)ccc3Sc3ccccc3-4)C2O)C(C)(O)CC(C)CN(C)C(C)C(O)C1(C)O", "note": "(centres unmarked) [Compound 15]", "values": [
      {"measurement": "IC50", "setting": "[2]", "result": "< 10", "unit": "µM"}
    ]}
  ]
}
